Reference: patent publication EP0277849A1, “Incorporation of one or more lipophilic, active principles into lipoproteins, lipoproteins obtained and pharmaceutical compositions containing them” (IRE-CELLTARG S.A., priority 1987, dated 1988)

How the values were obtained:
L. mexicana amazonentis = test: In vitro antileishmanial model: intracellular amastigotes in peritoneal macrophages; type: cell-based; settings: for Nombre d'amastigotes (b) (% des contrôles): 35°, mean (SD) of 4
Method: Le modèle in vitro utilisé, consiste à développer les formes intracellulaires (amastigotes) de Leishmania mexicana anazonentis dans des macrophages péritonéaux de souris Balb/c injectés initialement par les formes promastigotes.
La culture de macrophages est obtenue à partir des cellules de la cavité péritonéale.
Brièvement, la cavité péritonéale est lavée plusieurs fois avec du milieu RPMI 1640 contenant de la pénicilline (100 U/ml) et de la streptomycine (100 µg/ml) additionné de glutamine (2 mM) et de 20 % de sérum de veau foetal décomplémenté à la chaleur. Ce milieu constitue le milieu de culture complet. Après centrifugation de la suspension cellulaire ainsi obtenue, les cellules sont resuspendues dans le même milieu, puis incubées 1 heure à 37° C en présence de 5 % C02 dans des boîtes de Pétri. Les macrophages adhérents sont ensuite lavés plusieurs fois, détachés de leur support puis comptés. Un volume cellulaire contenant 2,5 x 10^5 macrophages est ajouté dans chaque puits (16 mm de diamètre) des boîtes de culture contenant chacun une lamelle en verre. Les cellules sont ainsi cultivées 3 jours à 37°C. Avant d'être utilisées, les cultures sont lavées 2 fois pour retirer les cellules non adhérentes. Dans ces conditions, les cultures contiennent 1,5 à 2,0 x 10^5 macrophages.
La souche de L. mexicana amazonentis est maintenue sous forme promastigote à 27° C par passage successif dans du milieu Schneider Drosophila contenant 100 µg/ml de gentamycine, 2 mM de glutamine, 5 gg/ml d'hémine et additionné de 20 % de sérum de veau foetal décomplémenté.
Une suspension de promastigotes en phase stationnaire est ajoutée à chaque culture de macrophages à raison de 4 parasites par cellule. Les cultures sont incubées à 34,5°-35°C (5 % C02-95 % air) pendant 7 heures. Les cultures infectées sont lavées avec du milieu sans sérum jusqu'à ce qu'il y ait moins de un parasite par 20 macrophages. Une culture (1 boîte à 4 puits) est fixée et colorée au May-Grûnwald Giemsa pour contrôler l'infection (jour 0). S'il y a moins de 50 organismes intracellulaires par 100 macrophages, l'infection est considérée trop faible pour une interprétation correcte des résultats. 24 heures après l'infection, le milieu de culture est remplacé par du milieu frais contenant ou non un agent thérapeutique. Nous avons choisi d'utiliser le dérivé oléoyl-kétoconazole seul ou incorporé à des LSL natives ou acétylées. Le milieu (± l'agent thérapeutique) est renouvelé au jour 3. Au jour 6, des cultures de macrophages Infectés sont fixées, colorées, séchées, la lamelle de verre est ensuite montée sur une lame pour l'observation microscopique.
Le nombre d'amastigotes contenu dans 100 à 200 macrophages est déterminé pour chaque culture. Le nombre moyen d'organismes par 100 macrophages au jour 6 dans les cultures traitées est exprimé en pourcentage du nombre moyen d'organismes par 100 macrophages dans les cultures contrôles au jour 6 (% de survie). Les cultures contrôles contiennent en moyenne 300 à 400 parasites par 100 macrophages; 60 % en moyenne des macrophages sont infectés et contiennent de 5 à 7 amastigotes.

Candida tropicalis = test: Intracellular infection model: J77468 macrophages infected with Candida tropicalis; type: cell-based; settings: 2 % de sérum de veau foetal
Method: La lignée continue de macrophages J77468 d'origine murine provient d'un clonage de la souche J774 ATCC, et est cultivée en milieu RPMI 1640 additionné de glutamine 2 mM, 10% de sérum de veau foetal (décomplémenté 60 min. à 56°) et de 10 mM Hepes (pH 7.2). Une suspension de 5 10^6 cellules/ml sont infectées avec une culture de Candida tropicalis (5 10^5 levures/ml) provenant d'une culture de nuit dans de la casitone. Le milieu d'infection utilisé est du RPMI contenant 2 % de sérum de veau nouveau-né et 10 mM Hepes (pH 7.2).
Après 3 h d'incubation à 37° dans un mélange d'air 10 % C02, la phagocytose des levures est complète. La suspension cellulaire macrophages-Candida est centrifugée, lavée abondamment et répartie à raison de 10^5 macrophages infectés/alvéole dans des boîtes à 24 alvéoles contenant une lamelle de verre (diamètre 14 mm). Après 3 h de phagocytose (To), sur 100 macrophages, 32 contiennent de 1 à 6 Candida/macrophage, l'infection moyenne étant de 2 Candida/macrophage.
Toutes les levures ont été phagocytées sauf rares exceptions (estimation au microscope optique après coloration au May-Grünwald Giemsa). Douze concentrations différentes des drogues de référence et des drogues encapsulées dans les LDL sont distribuées dans les boîtes contenant les macrophages infectés.
L'évaluation de l'efficacité d'une drogue se fait à chaque concentration. Testées après 18 h d'incubation (37°, dans un mélange air-10 % C02), les levures se multiplient d'abord au sein des cellules hôtes, puis dans le milieu extracellulaire. Le taux de macrophages infectés est alors de 75 % chez les témoins. Une cellule peut contenir de 1 à plus de 20 Candida/cellule, la majorité contient de 2 à 6 levures/cellule. Le milieu de culture contient 10^8 Candida extracellulaires/ml (comptage dans une cellule de Burker).
L'activité d'une drogue encapsulée ou non dans les LDL ou Ac-LDL par rapport à un antifongique de référence, le kétoconazole (K), est déterminé par la concentration micromolaire en drogue réduisant de 50 % le nombre de macrophages infectés par les Candida (=C150). Signalons que parallèlement à la réduction au cours du traitement, du taux de cellules infectées, le nombre de Candida par macrophage infecté diminue fortement (de 1 à 3 levures/cellule).
Le milieu de culture est RPMI + glutamine 2 mM + Hepes 10 mM + 2 % de sérum de veau foetal.

[1] = Leishmania mexicana, Peritoneal macrophage, read-out: Activité (c) (% inhibition)

SMILES: CCCCCCCC/C=C\CCCCCCCC(=O)N1CCN(c2ccc(OC[C@H]3CO[C@](Cn4ccnc4)(c4ccc(Cl)cc4Cl)O3)cc2)CC1 [KO1]
- inhibition at 0.5 µg/mL (L. mexicana amazonentis; [1]): 28%
- inhibition at 1 µg/mL (L. mexicana amazonentis; [1]): 43%
- inhibition at 1.4 µg/mL (L. mexicana amazonentis; [1]): 50%
- inhibition at 2 µg/mL (L. mexicana amazonentis; [1]): 56%
- inhibition at 2.5 µg/mL (L. mexicana amazonentis; [1]): 64%
- inhibition at 11 µg/mL (L. mexicana amazonentis; [1]): 90%
- index thérapeutique (rapport de ED50 kéto sur ED50 K01) (L. mexicana amazonentis; compared with kétoconazole): 9
- Nombre d'amastigotes (b) (% des contrôles) (L. mexicana amazonentis; dose 0,5 µg/ml, 6 jours): 72 (6) %
- Nombre d'amastigotes (b) (% des contrôles) (L. mexicana amazonentis; dose 1,0 µg/ml, 6 jours): 57 (3) %
- Nombre d'amastigotes (b) (% des contrôles) (L. mexicana amazonentis; dose 1,4 µg/ml, 6 jours): 50 (4) %
- Nombre d'amastigotes (b) (% des contrôles) (L. mexicana amazonentis; dose 2,0 µg/ml, 6 jours): 44 (2) %
- Nombre d'amastigotes (b) (% des contrôles) (L. mexicana amazonentis; dose 2,5 µg/ml, 6 jours): 36 (6) %
- Nombre d'amastigotes (b) (% des contrôles) (L. mexicana amazonentis; dose 11,0 µg/ml, 6 jours): 10 (4) %
- ED50 (50 % d'inhibition) (L. mexicana amazonentis; intracellular amastigotes, 6 jours): 1,4 µg KO1.ml
- CI50 K/AF (Candida tropicalis): 0,6
- IC50 (Candida tropicalis; Candida tropicalis, Macrophage, micromolar concentration reducing infected macrophages by 50 %, 18 h, read-out: CI50 (the source's name)): 85.3 µM
